Test results: US20210041441A1, “DISCOVERY OF NOVEL MOLECULES AND REPURPOSED DRUGS FOR RAS FAMILY GTPases” (UNM Rainforest Innovations, priority 2018, published 2021)
“Also recorded” adds a separate entry of the source. Where a name gives a salt, the structure may show the parent alone.

How the values were obtained:
[1] = tested on: H-Ras, H-RasG12V, Rab and Rho subfamilies; settings: earlier studies; cited from earlier work
[2] = tested on: Ras family GTPases (KRas WT, G12v, G13d, G12a, G12c, G12d, Q61H, Q61L, Q61R; HRas WT, HRas G12v; CDC42 WT, CDC42 L61; Rac1 WT, Rac1 L61); assay: Multiplex flow cytometry Bodipy FL-GTP binding, compound screen and dose response; settings: for activity or affinity relative to other compounds / selectivity among GTPases (RAS vs non-RAS, individual proteins): multiplex dose response; for class of modulation of Bodipy-GTP binding to Ras family GTPases (pan activator, pan inhibitor, selective inhibitor, mixed activity modulator): multiplex, 10 nM Bodipy FL-GTP, compound 100-0.015 μM, normalized to DMSO
Protocol: Following this initial incubation, passivated beads were collected by centrifugation and resuspended in assay buffer with individual GST-GTPase fusion proteins at a final concentration of 1 M. Overnight coupling reactions were carried out at 4° C. with rotation. The amount of each bead type used for coupling and the final volume of the coupling reaction was determined by the experimental protocol. Typically, bead sets are used at a final concentration of 200 bead/μL. To remove unbound GST-GTPase, bead sets were washed twice by centrifugation with ice-cold assay buffer. Individually coated beads were pooled together and kept cold in an appropriate volume before use in binding assays. Bead-bound proteins are sufficiently stable to study secondary interactions between GTPase-GST chimera's and Bodipy-FL GTP^54. Note that an extra GSH-bead set is included that is not protein coupled. This set serves as a ‘scavenger’ for proteins that might dissociate during the binding assay.
Data Acquisition: Assay plates were sampled using the HyperCyt™ high throughput flow cytometry platform (Intellicyt; Albuquerque, N. Mex.). During sampling, the probe moves from well to well and samples 1-2 μL from each well with 0.4 sec transit time in the air before sampling the next well. […] Plate data are acquired as time-resolved files that are parsed by software-based well identification algorithms, segregating individual well data that is merged with compound library files to determine compound activity in each well. Gating based on red fluorescence emission distinguishes the separately coated beads. Plate performance was validated using the Z-prime calculation^58.
Dose response data points were fitted by Prism® software (GraphPad Software Inc., San Diego, Calif.) using nonlinear least-squares regression in a sigmoidal dose-response model with variable slope, also known as the 4-parameter logistic equation.
Each well of an assay plate contained 10 sets of beads with variable red fluorescent intensities. Nine protein-coupled bead sets, carrying the different GST-KRas proteins were combined with an uncoupled GSH-bead that serves as a scavenger for GST-proteins that might dissociate during the assay. Bead mixtures were dispensed into individual wells of a 384-well assay plate and incubated with fluorescent GTP in the presence of library compounds. The final concentration of reagents in each assay well was 10 μM compound, 10 nM Bodipy FL-GTP, and 0.1% DMSO. Each bead set was added at 200 beads/μL. Each plate was analyzed both in forward (starting with A1) and reverse direction to account for fluorescent compounds that can carryover during sampling and effect subsequent sample values. […] Excess GTP containing wells were evaluated separately and were used, along with the DMSO control wells, to calculate a Z′ value for each bead set. […] A secondary single point evaluation was performed on these identified primary hits.

Q61 KRas mutants = assay: Multiplex flow cytometry Bodipy FL-GTP binding, compound dose response, Q61 mutants; set-up: species or system Human; settings: 10 nM Bodipy FL-GTP
Protocol: Bead Coupling: 4 μm diameter, glutathione-beads (GSH-beads), distinguished by ten different intensities of red fluorescence (varying by several orders of magnitude of emission at 665±10 nm with excitation at 635 nm) were obtained by special order from Duke Scientific Corp. Each polystyrene bead set is supplied at 1.4×10^8 beads/ml with approximately 1.2×10^6 glutathione sites per bead (determined by using GST—green fluorescent protein^42). Prior to incubation with individual GST-GTPase fusion proteins, an appropriate volume of each bead slurry was incubated for 30 minutes at room temperature in assay buffer (20 mM HEPES pH 7.5, 125 μM […], 1 mM MgCl2, 0.5 mM EDTA pH 8.0, 0.01% NP-40) supplemented with 1 mM dithiothreitol and 0.1% BSA. Following this initial incubation, passivated beads were collected by centrifugation and resuspended in assay buffer with individual GST-GTPase fusion proteins at a final concentration of […]. Overnight coupling reactions were carried out at 4° C. with rotation. The amount of each bead type used for coupling and the final volume of the coupling reaction was determined by the experimental protocol. Typically, bead sets are used at a final concentration of 200 bead/μL. To remove unbound GST-GTPase, bead sets were washed twice by centrifugation with ice-cold assay buffer. Individually coated beads were pooled together and kept cold in an appropriate volume before use in binding assays. Bead-bound proteins are sufficiently stable to study secondary interactions between GTPase-GST chimera's and Bodipy-FL GTP^54. Note that an extra GSH-bead set is included that is not protein coupled. This set serves as a ‘scavenger’ for proteins that might dissociate during the binding assay.
For assay screening plates, compound libraries were first dispensed into columns 3-22 using a Labcyte 555 Echo Acoustic Dispenser (San Jose, Calif.) for a final concentration of 10 μM. An equal volume (10 nL) of DMSO was added to the vehicle control wells (column 2). Following the addition of library compounds, 2 μL of assay buffer was added and the plates were mixed before addition of 5 μL of the protein-coupled bead mixtures; 10 μL of assay buffer was added to empty wells in columns 1 and 24. Empty wells serve as wash wells between compound wells and control wells. Plates were mixed and incubated on a rotator for 30 minutes at 4° C. before the addition of 3 μL of Bodipy FL-GTP resulting in a final concentration 10 nM Bodipy FL-GTP. Plates were mixed and incubated for 1 hour at 4° C. Negative controls, containing bead mixtures, Bodipy FL-GTP, and 30 μM unlabeled GTP were assayed separately. Dose response plates were assembled similarly.
Data Acquisition: Assay plates were sampled using the HyperCyt™ high throughput flow cytometry platform (Intellicyt; Albuquerque, N. Mex.). During sampling, the probe moves from well to well and samples 1-2 μL from each well with 0.4 sec transit time in the air before sampling the next well. The resulting sample stream consisting of 384 bubble-separated samples is delivered to an Accuri C6 flow cytometer (BD Biosciences; San Jose, Calif.). Bodipy FL-GTP fluorescence is excited at 488 nm and detected with a 533/30 bandpass filter. […] Gating based on red fluorescence emission distinguishes the separately coated beads. […]

[3] = tested on: KRas G12v, HRas G12V, Kras Q61R, Rac1 L61, CDC42; assay: Equilibrium kinetics assays, real-time Bodipy FL-GTP association and dissociation; assay type: binding, Human; settings: for displacement of pre-bound Bodipy FL-GTP: pre-binding at 4° C. or RT in the presence of Mg2+
Protocol: Equilibrium Kinetics Assays: GTPase-coupled beads were prepared as described above and were kept on ice until used. Reactions were performed at room temperature in amber micro-centrifuge tubes in an appropriate volume of assay buffer. Bead mixtures were initially incubated on a rotator with Guanabenz acetate (100 μM) or DMSO for 30 min at 4° C. prior to the addition of 1 nM Bodipy FL-GTP. Real-time binding kinetics was recorded using an Accuri C6 flow cytometer. Binding association was followed for 15 minutes at which time excess GTP was added. Disassociation kinetics was followed for an additional 25 minutes. Data was analyzed using GraphPad Prism software. The association time course was fitted to a two phase exponential association and the dissociation time course was fitted to a two phase decay (exponential).
To determine mechanism of action, we evaluated binding and dissociation of Bodipy FL-GTP in real-time kinetic experiments in the presence of Guanabenz acetate or GTP. Tests included pre-binding of Bodipy-FL GTP at 4′ C. or RT in the presence of Mg^2+.
It was then elected to perform association rate analysis, using the order of addition of reagents used in screening, where guanabenz was added first, incubated at 4° C., then Bodipy FL-GTP was added at room temperature.

GTPases (Rac1 and Cdc42) = settings: in cells, earlier studies; read-out: IC50 values for inhibitory activity against the GTPases; cited from earlier work
GTPases = settings: cited from earlier work
[4] = biological target: KRas proteins (Wild type, G12v, G13d, G12a, G12c, G12d, Q61L, and Q61R); assay: Dose dependent Bodipy FL-GTP binding assay, KRas multiplex; set-up: species or system Human; settings: separate KRas proteins, 1 hour at 4° C.; read-out: binding affinities
From the text: Bead Coupling: 4 μm diameter, glutathione-beads (GSH-beads), distinguished by ten different intensities of red fluorescence (varying by several orders of magnitude of emission at 665±10 nm with excitation at 635 nm) were obtained by special order from Duke Scientific Corp. Each polystyrene bead set is supplied at 1.4×10^8 beads/ml with approximately 1.2×10^6 glutathione sites per bead (determined by using GST—green fluorescent protein^42). […] The amount of each bead type used for coupling and the final volume of the coupling reaction was determined by the experimental protocol. […]
Dose Dependent Bodipy FL-GTP Binding Assays: For dose dependence binding assays, GTPase-coupled bead sets were incubated on a rotator for 1 hour at 4° C. with varying concentrations of Bodipy FL-GTP (0.3-300 nM). […] Non-specific binding of Bodipy-FL GTP was assessed by incubating coupled beads with excess GTP prior to the addition of the Bodipy analogue. […]
Assay Plate Assembly: Plate assays were performed in 384-well microtiter plates (Greiner Bio-one, #784101); plates were assembled using a BioTek MultiFlo™ Microplate Dispenser. For dose-dependent Bodipy FL-GTP binding assays, total and non-specific binding were assessed by pre-incubation (30 min/4° C.) in the absence or presence of 30 μM GTP, respectively. […]

CC1(C)Cc2c(sc(NC(=S)NC(=O)c3ccccc3)c2C(=O)O)CO1 [CID1067700]
inhibitory activity on guanine nucleotide binding [1]: inhibitory activity against H-Ras and H-RasG12V; also recorded: broad spectrum inhibitor of the Rab and Rho subfamilies; also recorded: competitive inhibitor of nucleotide binding

CN(C)CC/C=C1/c2ccccc2Sc2ccc(Cl)cc21 [Chlorprothixene hydrochloride]
activity or affinity relative to other compounds [2]: most active | selectivity among GTPases (RAS vs non-RAS, individual proteins) [2]: selective for KRas WT, the KRas G12 mutants, and the HRas proteins | class of modulation of Bodipy-GTP binding to Ras family GTPases (pan activator, pan inhibitor, selective inhibitor, mixed activity modulator) ([2]; hydrochloride): selective inhibitors | class of modulation of Bodipy-GTP binding to Ras family GTPases (pan activator, pan inhibitor, selective inhibitor, mixed activity modulator) ([2]; listed as chlorprothixene hydrochloride, hydrochloride): Selective inhibitors | class of modulation of Bodipy-GTP binding to Ras family GTPases (pan activator, pan inhibitor, selective inhibitor, mixed activity modulator) ([2]; listed as chlorproxithene, hydrochloride): selective inhibition | effect on GTP binding to Q61 KRas mutants (Q61 KRas mutants): not to Q61 KRas mutants

Nc1nc2c(ncn2[C@@H]2O[C@H](COP(=O)(O)OP(=O)(O)OP(=O)(O)O)[C@@H](O)[C@H]2O)c(=O)[nH]1 [GTP]
displacement of pre-bound Bodipy FL-GTP [3]: could be displaced by GTP

N=C(N)N/N=C/c1c(Cl)cccc1Cl [Guanabenz acetate]
selectivity among GTPases (RAS vs non-RAS, individual proteins) [2]: selective for KRas WT, the KRas G12 mutants, and the HRas proteins | activity or affinity relative to other compounds ([2]; listed as guanabenz acetate): most active; also recorded: comparable activity to a recently described KRas inhibitor with low μM affinity | selectivity among GTPases (RAS vs non-RAS, individual proteins) ([2]; listed as guanabenz acetate): does not appear to limit selectivity to G12D | class of modulation of Bodipy-GTP binding to Ras family GTPases (pan activator, pan inhibitor, selective inhibitor, mixed activity modulator) [2]: selective inhibitors | class of modulation of Bodipy-GTP binding to Ras family GTPases (pan activator, pan inhibitor, selective inhibitor, mixed activity modulator) ([2]; listed as guanabenz acetate): Selective inhibitors | effect on GTP binding to Q61 KRas mutants (Q61 KRas mutants): not to Q61 KRas mutants | association of Bodipy FL-GTP ([3]; guanabenz added first at 4° C., then Bodipy FL-GTP at room temperature, KRas G12v and HRas G12V vs Kras Q61R, Rac1 L61 and CDC42): Dramatic differences in association | displacement of pre-bound Bodipy FL-GTP [3]: not able to displace Bodipy FL-GTP | dissociation of Bodipy FL-GTP ([3]; stable GTPases in the absence of Mg): did not induce dissociation

O=C1C(Cl)=C(NCCN2CCOCC2)C(=O)c2ncccc21 [NSC 663284]
class of modulation of Bodipy-GTP binding to Ras family GTPases (pan activator, pan inhibitor, selective inhibitor, mixed activity modulator) ([2]; listed as NSC663284): Selective inhibitors | effect on GTP binding to Q61 KRas mutants (Q61 KRas mutants): not to Q61 KRas mutants

O=C(c1ccccc1)c1ccc2n1CC[C@H]2C(=O)O [R-ketorolac]
IC50 (GTPases (Rac1 and Cdc42)): 500 to 1000 nM

CC(C)(C)C(=O)Nc1ccc2c(c1)C(=O)C(=O)c1ccccc1-2 [SF1670]
selectivity among GTPases (RAS vs non-RAS, individual proteins) [2]: RAS activator, non-RAS inhibitor | class of modulation of Bodipy-GTP binding to Ras family GTPases (pan activator, pan inhibitor, selective inhibitor, mixed activity modulator) [2]: modulators with mixed activity | class of modulation of Bodipy-GTP binding to Ras family GTPases (pan activator, pan inhibitor, selective inhibitor, mixed activity modulator) ([2]; listed as SF1760): mixed activity | effect on GTP binding to Q61 KRas mutants (Q61 KRas mutants): activates Q61 KRas mutants

CN1CCN(CCCN2c3ccccc3Sc3ccc(C(F)(F)F)cc32)CC1 [Trifluperazine Hydrochloride]
class of modulation of Bodipy-GTP binding to Ras family GTPases (pan activator, pan inhibitor, selective inhibitor, mixed activity modulator) ([2]; hydrochloride): selective inhibitors | class of modulation of Bodipy-GTP binding to Ras family GTPases (pan activator, pan inhibitor, selective inhibitor, mixed activity modulator) ([2]; listed as trifluoperazine, Hydrochloride): Selective inhibitors; also recorded: weak inhibition | effect on GTP binding to Q61 KRas mutants (Q61 KRas mutants): not to Q61 KRas mutants

O=C(c1ccccc1)c1ccc2n1CCC2C(=O)O (stereo not drawn) [ketorolac]
reported activity (GTPases): inhibitors

CSc1ccc(/C=C2/C(C)=C(CC(=O)O)c3cc(F)ccc32)cc1 [sulindac sulfide]
reported activity (GTPases): inhibitors

Guanosine 5′-Triphosphate, BODIPY™ FL 2′-(or-3′)-O-(N-(2-Aminoethyl) Urethane), Trisodium Salt [Bodipy FL-GTP]
Kd [4]: 1 to 50 nM
